Data from US10800752B2, “Substituted naphtho[2,3-b]furans as water-soluble prodrugs for preventing and/or treating cancer” (BOSTON BIOMEDICAL, INC., priority 2015, dated 2020).

What was measured:
[1] = Evaluation of a conversion rate to 2-acetylnaphtho[2,3-b]furan-4,9-dione in human plasma; format: in vitro ADME; details: Human plasma, 1 umol/L, 37° C., incubation time 120 min
Outline: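 Compounds at 1 umol/L incubated at 37° C in human plasma, CD1 mouse plasma or pH 7.4 phosphate buffer, sampled up to 120 minutes. After acidified acetonitrile protein removal, parent loss and conversion to 2-acetylnaphtho[2,3-b]furan-4,9-dione measured by LC-MS (ESI positive).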

[2] = Evaluation of a conversion rate to 2-acetylnaphtho[2,3-b]furan-4,9-dione in CD1 mouse plasma; format: in vitro ADME; details: CD1 mouse plasma, 1 umol/L, 37° C., incubation time 120 min
Procedure: For test compounds, the decrease rate of the test compounds and the conversion rate thereof to 2-acetylnaphtho[2,3-b]furan-4,9-dione in human plasma, CD1 mouse plasma, and pH 7.4 phosphate buffer solution were measured.
Test compounds were incubated at the concentration of 1 umol/L in human plasma (cat. no. 12250210, COSMO BIO), CD1 mouse plasma (cat. no. AP3054, KAC), and phosphate buffer solution at 37° C., and removed at predetermined times (0, 5, 10, 30, 60, and 120 minutes). After protein-removing treatment was performed, they are analyzed with LC-MS. It should be noted that the protein-removing treatment used acetonitrile containing: 10% volume of 1 mol/L hydrochloric acid; 1% volume of 46% citric acid; and phenytoin as an internal standard.
The measurement condition of LC-MS is as described below. LC-MS condition column: Kinetex 2.6 u PFP 100 A 50×2.1 mm Column temperature: 40° C.
Mobile phase: A: 0.1% formic acid-containing water
• B: 0.1% formic acid-containing acetonitrile A/B(min): 95/5(0)→5/95(3)→5/95(4)→95/5(4.1)→95/5(6) Flow rate: 0.4 mL/min Detection: ESI (positive mode) Injection volume: 10 uL
Measurement values are calculated from the peak area ratio in LC-MS between an internal standard material, phenytoin and an active form, 2-acetylnaphtho[2,3-b]furan-4,9-dione, and are expressed in %.
In the same way as Example 6, the incubation time was set as 120 minutes later, and the conversion rate of each of various test compounds to 2-acetylnaphtho[2,3-b]furan-4,9-dione in human plasma, CD1 mouse plasma, and pH 7.4 phosphate buffer solution was measured. A series of the present compounds were confirmed to be converted to 2-acetylnaphtho[2,3-b]furan-4,9-dione in pH 7.4 phosphate buffer solution in addition to human plasma and CD1 mouse plasma. Therefore, a series of the test compounds of the present invention were confirmed to be converted to the activated form via a route other than an enzymatic conversion.

[3] = Evaluation of a conversion rate to 2-acetylnaphtho[2,3-b]furan-4,9-dione in pH 7.4 phosphate buffer solution; format: physicochemical; details: Phosphate buffer solution (pH 7.4), 1 umol/L, 37° C., incubation time 120 min
Outline: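 Compounds at 1 umol/L were incubated at 37° C in human plasma, CD1 mouse plasma or pH 7.4 phosphate buffer, sampled up to 120 minutes, acid/acetonitrile-deproteinised and analysed by LC-MS (ESI positive). Conversion (%) derived from the peak area ratio of the active form to phenytoin internal standard.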

Solubility test = details: 50 mmol/L glycine buffer solution (pH 2.0), room temperature, 24 hours shaking
Procedure: A water-soluble prodrug was added into 50 mmol/L glycine buffer solution (pH 2.0). After shaking at room temperature for 24 hours, the mixture was filtered through a membrane filter, and then the filtrate was measured with HPLC.
The measurement condition of HPLC is as described below. HPLC condition column: Acquity UPLC BEH C18, 1.7 um, 50×2.1 mm
Mobile phase: A: 0.1% trifluoroacetic acid-containing water

SMILES | % Measurement value (conversion rate to 2-acetylnaphtho[2,3-b]furan-4,9-dione) [1] [%] | % Measurement value (conversion rate to 2-acetylnaphtho[2,3-b]furan-4,9-dione) [2] [%] | % Measurement value (conversion rate to 2-acetylnaphtho[2,3-b]furan-4,9-dione) [3] [%] | Solubility in pH 2.0 buffer solution (Solubility test) [mg/mL]
CC(=O)c1cc2c(OC(=O)NCCCNCC(=O)O)c3ccccc3c(O)c2o1.Cl [Example 77] | 68 | 70 | 66 | 0.5
CC(=O)c1cc2c(O)c3ccccc3c(OC(=O)NCCNCC(=O)O)c2o1.Cl [Example 78] | 54 | 66 | 43 | 0.1
CC(=O)c1cc2c(O)c3ccccc3c(OC(=O)NCCNCC(=O)NCC(=O)O)c2o1.Cl [Example 83] | 67 | 67 | 31 | >5.0
